Activity calls are given as the source filed them. The calls are words filed in the database; no cut-off is given here.
How the values were obtained:
[1] = target: T1, Cyclin-dependent kinases regulatory subunit 1/S-phase kinase-associated protein 2 (Homo sapiens) (UniProt P61024+Q13309); assay: Inhibition of GST-tagged SKP2 (unknown origin) binding to His6-tagged CKS1 (unknown origin) at 50 uM preincubated with SKP2 for 10 mins followed by CKS1 addition for 20 mins and measured after by HTRF method relative to control; type: protein assay; conditions: time 30.0 min
T1 sequence (P61024 2-79 limits assumed): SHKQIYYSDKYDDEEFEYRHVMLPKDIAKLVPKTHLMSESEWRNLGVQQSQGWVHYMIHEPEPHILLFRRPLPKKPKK
T1 sequence (Q13309 whole entry partner): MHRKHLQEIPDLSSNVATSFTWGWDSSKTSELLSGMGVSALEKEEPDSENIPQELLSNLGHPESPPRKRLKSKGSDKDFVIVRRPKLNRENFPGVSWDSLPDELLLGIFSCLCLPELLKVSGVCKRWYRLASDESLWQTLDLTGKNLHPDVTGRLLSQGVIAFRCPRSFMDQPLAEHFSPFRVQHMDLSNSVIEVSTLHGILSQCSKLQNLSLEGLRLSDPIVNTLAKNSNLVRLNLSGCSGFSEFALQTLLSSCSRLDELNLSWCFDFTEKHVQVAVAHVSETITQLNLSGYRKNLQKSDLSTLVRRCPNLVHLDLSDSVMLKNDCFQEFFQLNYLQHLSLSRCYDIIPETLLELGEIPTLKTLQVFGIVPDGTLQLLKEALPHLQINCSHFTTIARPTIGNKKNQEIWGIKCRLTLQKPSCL

[2] = target: T1, Cyclin-dependent kinases regulatory subunit 1/S-phase kinase-associated protein 2 (Homo sapiens); assay: Inhibition of GST-tagged SKP2 (unknown origin) binding to His6-tagged CKS1 (unknown origin) incubated for 1 hr by pull down method; type: protein assay
[3] = target: S-phase kinase-associated protein 2 (Homo sapiens) (UniProt Q13309); assay: Binding affinity to SKP2 in human PC-3 cells assessed as increase in thermal stability at 57 to 68 degreeC incubated for 4 hrs by CETSA; type: cell-based
Chain of S-phase kinase-associated protein 2 (Homo sapiens) (Q13309 whole entry): as the sequence (Q13309 whole entry partner) above

[4] = tested on: MGC-803; assay: Inhibition of cell proliferation in human MGC-803 cells incubated for 24 to 72 hrs by MTT assay; type: functional, cell-based; conditions: dose 2-50 µM, time 24-72 hrs
[5] = tested on: PC-3; assay: Inhibition of cell invasion in human PC-3 cells incubated for 48 hrs by […]; type: functional, cell-based; conditions: dose 2.5-7.5 µM
[6] = tested on: PC-3; assay: Inhibition of cell migration in human PC-3 cells incubated for 48 hrs by wound healing assay; type: functional, cell-based; conditions: dose 2.5-7.5 µM
[7] = tested on: PC-3; assay: Induction of cell cycle arrest in human PC-3 cells assessed as cells at G0/G1 phase at 7.5 uM incubated for 36 hrs by PI staining based flow cytometry (reference value: 54.5%); type: functional
[8] = tested on: PC-3; assay: Induction of cell cycle arrest in human PC-3 cells assessed as cells at G0/G1 phase at 15 uM incubated for 36 hrs by PI staining based flow cytometry (reference value: 54.5%); type: functional
[9] = tested on: MGC-803; assay: Induction of cell cycle arrest in human MGC-803 cells assessed as cells at G0/G1 phase at 7.5 uM incubated for 36 hrs by PI staining based flow cytometry (reference value: 57.1%); type: functional
[10] = tested on: MGC-803; assay: Induction of cell cycle arrest in human MGC-803 cells assessed as cells at G0/G1 phase at 15 uM incubated for 36 hrs by PI staining based flow cytometry (reference value: 57.1%); type: functional
[11] = tested on: MGC-803; assay: Induction of cell cycle arrest in human MGC-803 cells assessed as cells at S phase at 15 uM incubated for 36 hrs by PI staining based flow cytometry (reference value: 18.2%); type: functional
[12] = tested on: PC-3; assay: Induction of cell cycle arrest in human PC-3 cells assessed as cells at G0/G1 phase at 15 uM incubated for 6 hrs by PI staining based flow cytometry (reference value: 55.1%); type: functional
[13] = tested on: PC-3; assay: Induction of cell cycle arrest in human PC-3 cells assessed as cells at S phase at 15 uM incubated for 6 hrs by PI staining based flow cytometry (reference value: 22.9%); type: functional
[14] = tested on: PC-3; assay: Induction of cell cycle arrest in human PC-3 cells assessed as cells at G2/M phase at 15 uM incubated for 12 hrs by PI staining based flow cytometry (reference value: 21.4%); type: functional
[15] = tested on: PC-3; assay: Induction of cell cycle arrest in human PC-3 cells assessed as cells at G0/G1 phase at 15 uM incubated for 24 hrs by PI staining based flow cytometry (reference value: 55.1%); type: functional
[16] = tested on: PC-3; assay: Induction of cell cycle arrest in human PC-3 cells assessed as cells at S phase at 15 uM incubated for 24 hrs by PI staining based flow cytometry (reference value: 22.9%); type: functional
[17] = tested on: PC-3; assay: Induction of cell cycle arrest in human PC-3 cells assessed as cells at G2/M phase at 15 uM incubated for 24 hrs by PI staining based flow cytometry (reference value: 21.4%); type: functional
[18] = tested on: PC-3; assay: Induction of cell cycle arrest in human PC-3 cells assessed as cells at G2/M phase at 15 uM incubated for 48 hrs by PI staining based flow cytometry (reference value: 21.4%); type: functional
[19] = tested on: MGC-803; assay: Induction of cell cycle arrest in human MGC-803 cells assessed as cells at G2/M phase at 15 uM incubated for 6 hrs by PI staining based flow cytometry (reference value: 20.8%); type: functional
[20] = tested on: MGC-803; assay: Induction of cell cycle arrest in human MGC-803 cells assessed as cells at G0/G1 phase at 15 uM incubated for 12 hrs by PI staining based flow cytometry (reference value: 57.9%); type: functional
[21] = tested on: MGC-803; assay: Induction of cell cycle arrest in human MGC-803 cells assessed as cells at G2/M phase at 15 uM incubated for 12 hrs by PI staining based flow cytometry (reference value: 20.8%); type: functional
[22] = tested on: MGC-803; assay: Induction of cell cycle arrest in human MGC-803 cells assessed as cells at G0/G1 phase at 15 uM incubated for 24 hrs by PI staining based flow cytometry (reference value: 57.9%); type: functional
[23] = tested on: MGC-803; assay: Induction of cell cycle arrest in human MGC-803 cells assessed as cells at G2/M phase at 15 uM incubated for 48 hrs by PI staining based flow cytometry (reference value: 20.8%); type: functional
[24] = tested on: MGC-803; assay: Downregulation of SKP2 protein level in human MGC-803 cells incubated for 48 hrs by Western blotting analysis; type: functional, cell-based; conditions: dose 5-15 µM
[25] = tested on: PC-3; assay: Downregulation of SKP2 protein level in human PC-3 cells incubated for 48 hrs by Western blotting analysis; type: functional, cell-based; conditions: dose 5-15 µM
[26] = tested on: MGC-803; assay: Upregulation of p27 protein expression in human MGC-803 cells at 5 to 15 uM incubated for 48 hrs by Western blotting analysis; type: functional, cell-based; conditions: dose 5-15 µM
[27] = tested on: PC-3; assay: Upregulation of p21 protein expression in human PC-3 cells at 5 to 15 uM incubated for 48 hrs by Western blotting analysis; type: functional, cell-based; conditions: dose 5-15 µM
[28] = tested on: MGC-803; assay: Upregulation of p27 protein expression in human MGC-803 cells at 15 uM by Western blotting analysis; type: functional, cell-based; conditions: time 6-48 hrs, TDE = time-dependent effect
[29] = tested on: MGC-803; assay: Antitumor activity against human MGC-803 cells xenografted in NOD-SCID mouse assessed as tumor growth inhibition at 25 mg/kg, IG administered for 21 days; type: functional; conditions: MGC-803, po, 504 h, time 21 day, read-out: TGI
[30] = tested on: MGC-803; assay: Antitumor activity against human MGC-803 cells xenografted in NOD-SCID mouse assessed as tumor growth inhibition at 50 mg/kg, IG administered for 21 days; type: functional; conditions: MGC-803, po, 504 h, time 21 day, read-out: TGI
[31] = Toxicity against NOD-SCID mouse assessed as change in liver morphology at 25 to 50 mg/kg, IG administered for 21 days by H and E staining based assay; type: organism-based; conditions: in vivo, po, 504 h, dose 25-50 mg/kg, time 21 day
[32] = Clearance in Sprague-Dawley rat at 1 mg/kg, iv measured upto 24 hrs by LC/MS-MS analysis; type: ADME, organism-based; conditions: in vivo
[33] = Volume of distribution at steady state in Sprague-Dawley rat at 1 mg/kg, iv measured upto 24 hrs by LC/MS-MS analysis; type: ADME, organism-based; conditions: in vivo
[34] = Cmax in Sprague-Dawley rat at 50 mg/kg, po measured upto 24 hrs by LC/MS-MS analysis; type: ADME, organism-based; conditions: in vivo
[35] = AUCinfinity in Sprague-Dawley rat at 50 mg/kg, po measured upto 24 hrs by LC/MS-MS analysis; type: ADME, organism-based; conditions: in vivo
[36] = MRT(infinity) in Sprague-Dawley rat at 50 mg/kg, po measured upto 24 hrs by LC/MS-MS analysis; type: ADME, organism-based; conditions: in vivo

COc1ccc(-c2cc(C)nc3nc(SCc4ccc(Br)cc4)nn23)c(OC)c1
inhibition [1]: 73.7%
inhibition [2]: Active
Activity [3]: Active
inhibition [4]: Dose-Dependent Effect
inhibition [5]: Dose-Dependent Effect
inhibition [6]: Dose-Dependent Effect
Activity [7]: 39%
Activity [8]: 30.1%
Activity [9]: 45.1%
Activity [10]: 39.3%
Activity [11]: 44.3%
Activity [12]: 52.8%
Activity [13]: 26.7%
Activity [14]: 18.5%
Activity [15]: 39.3%
Activity [16]: 38.6%
Activity [17]: 21.1%
Activity [18]: 22.5%
Activity [19]: 21.9%
Activity [20]: 44%
Activity [21]: 21.6%
Activity [22]: 40.4%
Activity [23]: 20.1%
Activity [24]: Dose-Dependent Effect
Activity [25]: Dose-Dependent Effect
Activity [26]: Active
Activity [27]: Active
Activity [28]: Tde
inhibition in vivo at 25 mg/kg [29]: 50.9%
inhibition in vivo at 50 mg/kg [30]: 76.9%
Activity [31]: Non-Toxic
CL [32]: 24 mL/min/kg
Vdss [33]: 8.87 L/kg
Cmax [34]: 168 ng/mL
AUC(0-inf) [35]: 1070 ng·h/mL
MRT inf [36]: 10.2 h

Reference: ChEMBL document CHEMBL5579901, “Discovery of Novel [1,2,4]Triazolo[1,5-a]pyrimidine Derivatives as Novel Potent S-Phase Kinase-Associated Protein 2 (SKP2) Inhibitors for the Treatment of Cancer” (J Med Chem, 2024)
